Test results from patent US9944647B2 (Incyte Corporation, priority 2015, dated 2018).

These compounds were tested against LSD-1 enzyme (Homo sapiens (Human), UniProt O60341) (assay: LANCE LSD1/KDM1A demethylase assay (LSD1 histone demethylase biochemical assay)). Conditions: 1 nM LSD-1 enzyme, 1 hour preincubation at 25° C., Biotin-labeled Histone H3 peptide substrate.
Experimental: Example A: LSD1 Histone Demethylase Biochemical Assay
LANCE LSD1/KDM1A demethylase assay—10 μL of 1 nM LSD-1 enzyme (ENZO BML-SE544-0050) in the assay buffer (50 mM Tris, pH 7.5, 0.01% Tween-20, 25 mM NaCl, 5 mM DTT) were preincubated for 1 hour at 25° C. with 0.8 μL compound/DMSO dotted in black 384 well polystyrene plates. […] Reactions were stopped by addition of 10 μL 1×LANCE Detection Buffer (PerkinElmer CR97-100) supplemented with 1.5 nM Eu-anti-unmodified H3K4 Antibody (PerkinElmer TRF0404), and 225 nM LANCE Ultra Streptavidin (PerkinElmer TRF102) along with 0.9 mM Tranylcypromine-HCl (Millipore 616431). After stopping the reactions plates were incubated for 30 minutes and read on a PHERAstar FS plate reader (BMG Labtech).
In the case of `Cc1ccc(-c2c(-c3ccc(C#N)cc3)nc(OC[C@@H]3CCCN(C)C3)n3ccnc23)cc1` [Example 1, 4-(8-(4-methylphenyl)-5-{[(3R)-1-methylpiperidin-3-yl]methoxy}imidazo[1,2-c]pyrimidin-7-yl)benzonitrile], the IC50 is reported as ≤ 50 nM. `Cc1ccc(-c2c(-c3ccc(C#N)cc3)nc(OC[C@@H]3CCN(C)C3)n3ccnc23)cc1` [Example 2, 4-(8-(4-methylphenyl)-5-{[(3R)-1-methylpyrrolidin-3-yl]methoxy}imidazo[1,2-c]pyrimidin-7-yl)benzonitrile] showed an IC50 of 50 to 500 nM. In the case of `COc1ccc(-c2c(-c3ccc(C#N)cc3)nc(OC[C@@H]3CCCN(C)C3)n3ccnc23)cn1` [Example 3, 4-(8-(6-methoxypyridin-3-yl)-5-{[(3R)-1-methylpiperidin-3-yl]methoxy}imidazo[1,2-c]pyrimidin-7-yl)benzonitrile], the IC50 is reported as ≤ 50 nM. `CN1CCC[C@@H](COc2nc(-c3ccc(C#N)cc3)c(-c3ccc(N(C)C)nc3)c3nccn23)C1` [Example 4, 4-(8-[6-(dimethylamino)pyridin-3-yl]-5-{[(3R)-1-methylpiperidin-3-yl]methoxy}imidazo[1,2-c]pyrimidin-7-yl)benzonitrile] was tested, and the IC50 was ≤ 50 nM. For `CN1CCC[C@@H](COc2nc(-c3ccc(C#N)cc3)c(-c3ccc(N4CCCC4)nc3)c3nccn23)C1` [Example 5, 4-[5-{[(3R)-1-methylpiperidin-3-yl]methoxy}-8-(6-pyrrolidin-1-ylpyridin-3-yl)imidazo[1,2-c]pyrimidin-7-yl]benzonitrile], the IC50 was ≤ 50 nM. In the case of `CN1CCC[C@@H](COc2nc(-c3ccc(C#N)cc3)c(-c3ccc4c(c3)CC(=O)N4C)c3nccn23)C1` [Example 6, 4-(8-(1-methyl-2-oxo-2,3-dihydro-1H-indol-5-yl)-5-{[(3R)-1-methylpiperidin-3-yl]methoxy}imidazo[1,2-c]pyrimidin-7-yl)benzonitrile], the IC50 is reported as 50 to 500 nM. For `CN1CCC[C@@H](COc2nc(-c3ccc(C#N)cc3)c(-c3ccc4c(c3)oc(=O)n4C)c3nccn23)C1` [Example 7, 4-(8-(3-methyl-2-oxo-2,3-dihydro-1,3-benzoxazol-6-yl)-5-{[(3R)-1-methylpiperidin-3-yl]methoxy}imidazo[1,2-c]pyrimidin-7-yl)benzonitrile], the IC50 was ≤ 50 nM. For `CN1CCC[C@@H](COc2nc(-c3ccc(C#N)cc3)c(-c3ccc4c(cnn4C)c3)c3nccn23)C1` [Example 8, 4-(8-(1-methyl-1H-indazol-5-yl)-5-{[(3R)-1-methylpiperidin-3-yl]methoxy}imidazo[1,2-c]pyrimidin-7-yl)benzonitrile], the IC50 was ≤ 50 nM. `CN1CCN(Cc2ccc(-c3c(-c4ccc(C#N)cc4)nc(OC[C@@H]4CCCN(C)C4)n4ccnc34)cc2)CC1` [Example 9, 4-(8-{4-[(4-methylpiperazin-1-yl)methyl]phenyl}-5-{[(3R)-1-methylpiperidin-3-yl]methoxy}imidazo[1,2-c]pyrimidin-7-yl)benzonitrile] was tested, and the IC50 was ≤ 50 nM. With `CN1CCN(C(=O)Cc2ccc(-c3c(-c4ccc(C#N)cc4)nc(OC[C@@H]4CCCN(C)C4)n4ccnc34)cc2)CC1` [Example 10, 4-(8-{4-[2-(4-methylpiperazin-1-yl)-2-oxoethyl]phenyl}-5-{[(3R)-1-methylpiperidin-3-yl]methoxy}imidazo[1,2-c]pyrimidin-7-yl)benzonitrile] the IC50 was ≤ 50 nM. In the case of `CN1CCC[C@@H](COc2nc(-c3ccc(C#N)cc3)c(-c3ccc(CCN4CCOCC4)cc3)c3nccn23)C1` [Example 11, 4-{5-{[(3R)-1-methylpiperidin-3-yl]methoxy}-8-[4-(2-morpholin-4-ylethyl)phenyl]imidazo[1,2-c]pyrimidin-7-yl}benzonitrile], the IC50 is reported as 50 to 500 nM. Work on `CN1CCC[C@@H](COc2nc(-c3ccc(C#N)cc3)c(-c3ccc(CN4CCOCC4)cc3)c3nccn23)C1` [Example 12, 4-{5-{[(3R)-1-methylpiperidin-3-yl]methoxy}-8-[4-(morpholin-4-ylmethyl)phenyl]imidazo[1,2-c]pyrimidin-7-yl}benzonitrile] yielded an IC50 of 50 to 500 nM. `CN1CCC[C@@H](COc2nc(-c3ccc(C#N)cc3)c(-c3ccc(CN4CC[C@H](C#N)C4)cc3)c3nccn23)C1` [Example 13, (3S)-1-[4-(7-(4-cyanophenyl)-5-{[(3R)-1-methylpiperidin-3-yl]methoxy}imidazo[1,2-c]pyrimidin-8-yl)benzyl]pyrrolidine-3-carbonitrile] was tested, and the IC50 was ≤ 50 nM. In the case of `CN1CCC[C@@H](COc2nc(-c3ccc(C#N)cc3)c(-c3cnc4c(c3)OCCN4C)c3nccn23)C1` [Example 14, 4-(8-(4-methyl-3,4-dihydro-2H-pyrido[3,2-b][1,4]oxazin-7-yl)-5-{[(3R)-1-methylpiperidin-3-yl]methoxy}imidazo[1,2-c]pyrimidin-7-yl)benzonitrile], the IC50 is reported as ≤ 50 nM. With `CN1CCC[C@@H](COc2nc(-c3ccc(C#N)cc3)c(-c3ccc4c(c3)OCC(=O)N4C)c3nccn23)C1` [Example 15, 4-(8-(4-methyl-3-oxo-3,4-dihydro-2H-1,4-benzoxazin-7-yl)-5-{[(3R)-1-methylpiperidin-3-yl]methoxy}imidazo[1,2-c]pyrimidin-7-yl)benzonitrile] the IC50 was 50 to 500 nM. `CN1CCC[C@@H](COc2nc(-c3ccc(C#N)cc3)c(-c3ccc(N4CCCC4=O)nc3)c3nccn23)C1` [Example 16, 4-{5-{[(3R)-1-methylpiperidin-3-yl]methoxy}-8-[6-(2-oxopyrrolidin-1-yl)pyridin-3-yl]imidazo[1,2-c]pyrimidin-7-yl}benzonitrile] was tested, and the IC50 was 50 to 500 nM. For `CN1CCC[C@@H](COc2nc(-c3ccc(C#N)cc3)c(-c3ccc4c(c3)ncn4C)c3nccn23)C1` [Example 17, 4-(8-(1-methyl-1H-benzimidazol-5-yl)-5-{[(3R)-1-methylpiperidin-3-yl]methoxy}imidazo[1,2-c]pyrimidin-7-yl)benzonitrile], the IC50 was ≤ 50 nM. `CN1CCC[C@@H](COc2nc(-c3ccc(C#N)cc3)c(-c3ccc4cnn(C)c4c3)c3nccn23)C1` [Example 18, 4-(8-(1-methyl-1H-indazol-6-yl)-5-{[(3R)-1-methylpiperidin-3-yl]methoxy}imidazo[1,2-c]pyrimidin-7-yl)benzonitrile] was tested, and the IC50 was 50 to 500 nM. With `CN1CCC[C@@H](COc2nc(-c3ccc(C#N)cc3)c(-c3cnc4c(ccn4C)c3)c3nccn23)C1` [Example 19, 4-[5-{[(3R)-1-methylpiperidin-3-yl]methoxy}-8-(1-methyl-1H-pyrrolo[2,3-b]pyridin-5-yl)imidazo[1,2-c]pyrimidin-7-yl]benzonitrile] the IC50 was ≤ 50 nM. `CN1CCC[C@@H](COc2nc(-c3ccc(C#N)cc3)c(-c3ccc4c(c3)CC(C(=O)N(C)C)O4)c3nccn23)C1` (stereo partly drawn) [Example 20, 5-(7-(4-cyanophenyl)-5-{[(3R)-1-methylpiperidin-3-yl]methoxy}imidazo[1,2-c]pyrimidin-8-yl)-N,N-dimethyl-2,3-dihydro-1-benzofuran-2-carboxamide] was tested, and the IC50 was ≤ 50 nM. `CN1CC[C@@H](COc2nc(-c3ccc(C#N)cc3)c(-c3ccc(N(C)C)nc3)c3nccn23)C1` [Example 21, 4-(8-[6-(dimethylamino)pyridin-3-yl]-5-{[(3R)-1-methylpyrrolidin-3-yl]methoxy}imidazo[1,2-c]pyrimidin-7-yl)benzonitrile] showed an IC50 of 50 to 500 nM. With `CN1CC[C@@H](COc2nc(-c3ccc(C#N)cc3)c(-c3ccc(N4CCCC4)nc3)c3nccn23)C1` [Example 22, 4-[5-{[(3R)-1-methylpyrrolidin-3-yl]methoxy}-8-(6-pyrrolidin-1-ylpyridin-3-yl)imidazo[1,2-c]pyrimidin-7-yl]benzonitrile] the IC50 was 50 to 500 nM. `CN1CC[C@@H](COc2nc(-c3ccc(C#N)cc3)c(-c3ccc4c(c3)CC(=O)N4C)c3nccn23)C1` [Example 23, 4-(8-(1-methyl-2-oxo-2,3-dihydro-1H-indol-5-yl)-5-{[(3R)-1-methylpyrrolidin-3-yl]methoxy}imidazo[1,2-c]pyrimidin-7-yl)benzonitrile] gave an IC50 of 50 to 500 nM. `CN1CC[C@@H](COc2nc(-c3ccc(C#N)cc3)c(-c3cnc4c(c3)OCCN4C)c3nccn23)C1` [Example 24, 4-(8-(4-methyl-3,4-dihydro-2H-pyrido[3,2-b][1,4]oxazin-7-yl)-5-{[(3R)-1-methylpyrrolidin-3-yl]methoxy}imidazo[1,2-c]pyrimidin-7-yl)benzonitrile] was tested, and the IC50 was ≤ 50 nM. `CN1CC[C@@H](COc2nc(-c3ccc(C#N)cc3)c(-c3ccc4c(c3)ncn4C)c3nccn23)C1` [Example 25, 4-(8-(1-methyl-1H-benzimidazol-5-yl)-5-{[(3R)-1-methylpyrrolidin-3-yl]methoxy}imidazo[1,2-c]pyrimidin-7-yl)benzonitrile] gave an IC50 of 50 to 500 nM. In the case of `CN1CC[C@@H](COc2nc(-c3ccc(C#N)cc3)c(-c3ccc4c(c3)oc(=O)n4C)c3nccn23)C1` [Example 26, 4-(8-(3-methyl-2-oxo-2,3-dihydro-1,3-benzoxazol-6-yl)-5-{[(3R)-1-methylpyrrolidin-3-yl]methoxy}imidazo[1,2-c]pyrimidin-7-yl)benzonitrile], the IC50 is reported as 50 to 500 nM. With `CN1CC[C@@H](COc2nc(-c3ccc(C#N)cc3)c(-c3ccc4c(cnn4C)c3)c3nccn23)C1` [Example 27, 4-(8-(1-methyl-1H-indazol-5-yl)-5-{[(3R)-1-methylpyrrolidin-3-yl]methoxy}imidazo[1,2-c]pyrimidin-7-yl)benzonitrile] the IC50 was ≤ 50 nM. For `CN1CCC[C@@H](COc2nc(-c3ccc(C#N)cc3)c(-c3cnc4c(cnn4C)c3)c3nccn23)C1` [Example 28, 4-[5-{[(3R)-1-methylpiperidin-3-yl]methoxy}-8-(1-methyl-1H-pyrazolo[3,4-b]pyridin-5-yl)imidazo [1,2-c]pyrimidin-7-yl]benzonitrile], the IC50 was ≤ 50 nM.
